We go through 2 compounds from patent US4431652A, “4-Hydroxy-5-substituted-3(2H)-isothiazolone-1,1-dioxide derivatives useful in treating urinary tract calcium oxalate lithiasis” (Merck & Co., Inc., priority 1980, dated 1984).

This assay has as its target T1, pig liver glycolate oxidase (Sus scrofa, UniProt I3LVF1).
T1 construct: The enzyme was pig liver glycolate oxidase; from tissue; host or cells: pig liver
T1 sequence (I3LVF1 1-370): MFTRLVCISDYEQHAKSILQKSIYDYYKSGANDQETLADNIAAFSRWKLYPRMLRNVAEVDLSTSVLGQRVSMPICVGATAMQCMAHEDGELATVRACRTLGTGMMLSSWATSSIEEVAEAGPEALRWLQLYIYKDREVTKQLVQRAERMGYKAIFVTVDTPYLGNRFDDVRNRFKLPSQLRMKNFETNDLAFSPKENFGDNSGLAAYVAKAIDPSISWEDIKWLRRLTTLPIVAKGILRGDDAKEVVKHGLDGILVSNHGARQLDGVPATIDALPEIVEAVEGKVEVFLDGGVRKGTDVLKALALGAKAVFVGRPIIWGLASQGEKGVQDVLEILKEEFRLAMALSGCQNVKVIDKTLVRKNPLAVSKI
In words: Glycolate oxidase enzyme inhibition (rate of reduction of sodium 2,6-dichlorophenol-indophenol by sodium glycolate, 600 nm). The class given is biochemical. The following applies: 25° C., 0.10 M phosphate buffer, pH 7.0, 3 mM EDTA, 2×10^-4 M sodium glycolate, 5×10^-5 M sodium 2,6-dichlorophenol-indophenol, initial rates 1 to 3 min. The method, then: The usefulness of the compounds of the present invention in treating urinary tract, especially renal, calcium oxalate lithiasis, was shown by the ability of these compounds to inhibit the glycolate oxidase enzyme. […] The activity of the enzyme, in turn, was measured by following the rate of reduction of sodium 2,6-dichlorophenol-indophenol by sodium glycolate in the presence of the enzyme. The enzyme was pig liver glycolate oxidase. The reaction was following spectrophotometrically at 600 nm. The assay was conducted at 25° C. in a 0.10 M phosphate buffer, pH 7.0, contining 3 mM EDTA. Initial substrate concentrations were 5×10^-5 M of sodium 2,6-dichlorophenol-indophenol and 2×10^-4 M of sodium glycolate. Reactions were initiated by the addition of enzyme. Initial rates during the period from 1 to 3 min. after the addition of enzyme were recorded on a Beckman Acta M-VI spectrophotometer. One control was run simultaneously with three test reactions, and all initial rates were adjusted to a common control rate. For further details of this procedure, see Randall et al., J. Med. Chem., 22, 6, 612 (1979).

A word on the IC50: it is the concentration at which inhibition is half-maximal. Low values mean greater potency, high ones weaker potency.

With `O=C1NS(=O)(=O)C(c2csc(-c3ccc(Cl)c(Cl)c3)n2)=C1O` [5-[2-(3,4-Dichlorophenyl)thiazol-4-yl]-4-hydroxy-3(2H)-isothiazolone-1,1-dioxide], the IC50 was determined as 110 nM.

For the compound `O=C1NS(=O)(=O)C(c2nc(-c3ccc(Cl)c(Cl)c3)cs2)=C1O` [5-[4-(3,4-Dichlorophenyl)thiazol-2-yl]-4-hydroxy-3(2H)-isothiazolone-1,1-dioxide], half-maximal inhibition (IC50) required 600 nM.
